In patent publication US9284303B2, “Benzimidazole cannabinoid agonists bearing a substituted heterocyclic group” (priority 2006, dated 2016):
pEC50: −log10 of the molar value. Like-named read-outs stand apart in the source and are kept apart here.

Key:
[1] = target: T1, human CB2 (hCB2) receptor (Homo sapiens, UniProt P34972); assay: Inhibition of forskolin-activated cAMP production upon activation of hCB2 (HTRF), CHO-K1 cells; format: cell-based; details: for ratio CB2 agonism over CB1 agonism: Table C-1, selectivity hCB2 over hCB1; for EC50: hCB2-CHO-K1 cells, read-out: CB2 pEC50 (converted); for EC50 / pEC50: forskolin-activated cAMP, pEC50=-log(EC50); for pEC50: CB2 pEC50, hCB2-CHO-K1 cells
T1 construct: expressed in transfected cells; host or cells: CHO-K1
Experimental: (§1) Functional activity of the test compounds was assessed by measuring their potency to inhibit forskolin-activated cAMP production upon activation of the human CB1 (hCB1) or human CB2 (hCB2) receptor through homogenous time resolved fluorescence (HTRF) assays.
(§2) Before the experiments, medium was removed, cells were washed with PBS/EDTA (140 mM NaCl, 1 mM Naz-EDTA, 8 mM Na2HPO4.2H2O, 8.5 mM KH2PO4, 2.7 mM KCl, 21 mM glucose), resuspended in stimulation buffer (HBSS 1x, IBMX 1 mM, Hepes 5 mM, MgCl2 10 mM, BSA 0.1%, pH 7.4). Cells were diluted to a concentration of 8.10^5 cell/ml for hCB1 experiments and 10^6 cells/ml for hCB2 experiments. Assays were performed using the cAMP Dynamic HTRF kit (CIS bio international, France) according to the recommendations of the manufacturer.
Then, 20 μl of the diluted hCB2-CHO-K1 cells was added (20,000 cells/well). After 30 minutes incubation in dark at room temperature, 10 μl cAMP-XL665 and 10 μl anti-cAMP cryptate (both at a final dilution of 1/100) was added to the cells.

[2] = target: T2, human CB1 (hCB1) receptor (Homo sapiens, UniProt P21554); assay: Inhibition of forskolin-activated cAMP production upon activation of hCB1 (HTRF), CHO-K1 cells; format: cell-based
T2 construct: expressed in transfected cells; host or cells: CHO-K1
Experimental: as §1
as §2, with “CHO-K1 cells stably transfected with either hCB1 or hCB2 were grown up to 80-90% confluence in T175 Falcon flasks in DMEM/NUT MIX F-12 culture medium complemented with 2% Solution A (5.10^6 IU/l penicillin G, 5 g/l streptomycin sulphate, 5.5 g/l pyruvate, 14.6 g/l L-glutamine, 1M NaOH) and 10% foetal calf serum. Before” for “Before”
For CB1, each well of a 96 flat bottom black polystyrene assay plate (Costar) was filled with 25 μl stimulation buffer containing 6 μM forskolin and either test compound (in 2% DMSO), 2% DMSO or 2 μM CP55490 (in 2% DMSO). Then, 25 μl of the diluted cells was added (20,000 cells/well). After 30 minutes incubation in dark at room temperature, 25 μl cAMP-XL665 and 25 μl anti-cAMP cryptate (both at a final dilution of 1/80) was added to the cells.
After equilibration of the reaction mixtures for 1 to 24 hours in dark at room temperature, fluorescence was measured at 665 nm and 620 nm using a Discovery microplate fluorescence counter (Perkin Elmer), and the signal ratio of 665 nm/620 nm was calculated. The signal ratios of the test compounds were expressed relative to the signal ratios of the DMSO control (maximal signal ratio, no inhibition of cAMP) and CP55490 or WIN55212-2 for hCB1 and hCB2, respectively (minimal signal ratio, maximal inhibition of cAMP). From the dose response curves generated for each test compound, the dose at which 50% of the maximal inhibition of cAMP level is observed (EC50, expressed in the Tables as pEC50=−log(EC50) values) and the level of inhibition reached with 10 μM of the test compound compared to CP55490 (for hCB1) or WIN55212-2 (for hCB2) was calculated.

[3] = CB1 pEC50, hCB1-CHO-K1 cells, forskolin-activated cAMP, pEC50=-log(EC50)

T1 sequence (P34972 whole entry): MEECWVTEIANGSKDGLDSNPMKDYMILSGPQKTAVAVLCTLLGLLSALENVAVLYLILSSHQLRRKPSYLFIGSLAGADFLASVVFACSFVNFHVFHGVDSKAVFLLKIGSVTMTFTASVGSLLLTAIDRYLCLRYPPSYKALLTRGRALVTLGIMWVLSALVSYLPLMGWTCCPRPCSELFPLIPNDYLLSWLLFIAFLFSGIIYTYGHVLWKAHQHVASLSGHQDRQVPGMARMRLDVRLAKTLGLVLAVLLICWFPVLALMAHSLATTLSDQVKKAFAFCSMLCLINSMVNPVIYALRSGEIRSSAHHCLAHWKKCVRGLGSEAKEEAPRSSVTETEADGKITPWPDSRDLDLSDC
T2 sequence (P21554 whole entry): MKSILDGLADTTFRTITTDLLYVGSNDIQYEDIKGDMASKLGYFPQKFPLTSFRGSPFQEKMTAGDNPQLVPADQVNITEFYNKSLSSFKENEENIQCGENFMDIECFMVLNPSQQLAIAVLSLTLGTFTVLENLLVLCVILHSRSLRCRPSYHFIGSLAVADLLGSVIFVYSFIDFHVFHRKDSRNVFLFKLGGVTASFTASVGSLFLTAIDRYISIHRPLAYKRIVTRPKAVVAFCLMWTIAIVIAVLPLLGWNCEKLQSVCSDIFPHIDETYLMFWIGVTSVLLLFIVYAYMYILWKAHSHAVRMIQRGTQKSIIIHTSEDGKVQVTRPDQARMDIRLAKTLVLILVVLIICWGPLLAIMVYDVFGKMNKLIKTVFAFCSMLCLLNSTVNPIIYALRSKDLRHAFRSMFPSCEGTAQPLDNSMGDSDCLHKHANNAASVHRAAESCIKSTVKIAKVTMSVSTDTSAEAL

SMILES | ratio CB2 agonism over CB1 agonism [1] | EC50 [1] [nM] | pEC50 [2, 3] | pEC50 [1] | ratio CB2 agonism over CB1 agonism ([1]; listed as 93) | pEC50 [2]
CC(C)(C)c1nc2cc(S(=O)(=O)c3ccn(C(F)F)c(=O)c3)ccc2n1CC1CCOCC1 [Co. No. 83] | 209 | 2 | 6.39 | – | – | –
CC(C)(C)c1nc2cc([S+]([O-])c3cc[n+]([O-])cc3Br)ccc2n1CC1CCOCC1 (stereo not drawn) [Co. No. 86] | – | 12 | < 5.00 | – | – | –
CC(C)(C)c1nc2cc(S(=O)(=O)c3ccnc(C#N)c3)ccc2n1CC1CCOCC1 [Co. No. 93] | – | – | < 5.00 | 8.83 | >6761 | –
CC(C)(C)c1nc2cc([S+]([O-])c3cc[n+]([O-])cc3C(F)(F)F)ccc2n1CC1CCOCC1 (stereo not drawn) [Co. No. 95] | – | 5.75 | < 5.00 | – | – | –
CC(C)(C)c1nc2cc(S(=O)(=O)c3ccc(OCC(F)(F)F)nc3)ccc2n1CC1CCOCC1 [Co. No. 108] | >3890 | 2.57 | < 5.00 | – | – | –
Cc1cccc(S(=O)(=O)c2ccc3c(c2)nc(C(C)(C)C)n3CC2CCOCC2)n1 [Co. No. 109] | 324 | 0.813 | 6.58 | – | – | –
CC(C)(C)c1nc2cc(S(=O)(=O)c3cccc(C(F)(F)F)n3)ccc2n1CC1CCOCC1 [Co. No. 110] | 1905 | 0.55 | 5.98 | – | – | –
COc1ncc(S(=O)(=O)c2ccc3c(c2)nc(C(C)(C)C)n3CC2CCOCC2)cn1 [Co. No. 111] | 372 | 1.15 | 6.37 | – | – | –
CC(C)(C)c1nc2cc(S(=O)(=O)c3ccnc(F)c3)ccc2n1CC1CCCCO1 (stereo not drawn) [Co. No. 113] | 302 | 2.63 | 6.10 | – | – | –
COc1c[n+]([O-])ccc1S(=O)(=O)c1ccc2c(c1)nc(C(C)(C)C)n2CC1CCOCC1 [Co. No. 115] | – | 3.72 | 5.44 | – | – | –
CC(C)(C)c1nc2cc(S(=O)(=O)c3ccc(CN)nc3)ccc2n1CC1CCOCC1 [Co. No. 116] | 966 | 5.89 | 5.24 | – | – | –
CC(C)(C)c1nc2cc(S(=O)(=O)c3ccnc(C(F)(F)F)c3)ccc2n1CC1CCOCC1 [Co. No. 119] | >1413 | 7.08 | < 5.00 | – | – | –
COc1cc(S(=O)(=O)c2ccc3c(c2)nc(C(C)(C)C)n3CC2CCC(F)(F)CC2)ccn1 [Co. No. 122] | 102 | 0.977 | 7.00 | – | – | –
CC(C)(C)c1nc2cc(S(=O)(=O)c3ccnc(/C=C\Cl)c3)ccc2n1CC1CCOCC1 [Co. No. 124] | >692 | 14.5 | < 5.00 | – | – | –
CC(C)(C)c1nc2cc(S(=O)(=O)c3ccnc(/C=C/Cl)c3)ccc2n1CC1CCOCC1 [Co. No. 125] | >3981 | 2.51 | < 5.00 | – | – | –
CC(C)(C)OC(=O)NCCCOc1cc(S(=O)(=O)c2ccc3c(c2)nc(C(C)(C)C)n3CC2CCOCC2)ccn1 [Co. No. 130] | >4315 | 2.29 | < 5.00 | – | – | –

SMILES | ratio CB2 agonism over CB1 agonism [1] | EC50 [1] [nM] | pEC50 [2, 3] | pEC50 [1] | ratio CB2 agonism over CB1 agonism ([1]; listed as 93) | pEC50 [2]
CC(C)(C)c1nc2cc(S(=O)(=O)c3ccnc(OCCCN)c3)ccc2n1CC1CCOCC1 [Co. No. 131] | >631 | 15.8 | < 5.00 | – | – | –
CC(=O)NCCCOc1cc(S(=O)(=O)c2ccc3c(c2)nc(C(C)(C)C)n3CC2CCOCC2)ccn1 [Co. No. 132] | >7079 | 1.41 | < 5.00 | – | – | –
CC(C)(C)c1nc2cc(S(=O)(=O)c3ccnc(OCCCN4CCOCC4)c3)ccc2n1CC1CCOCC1 [Co. No. 135] | >4571 | 2.19 | < 5.00 | – | – | –
CC(C)(C)c1nc2cc(S(=O)(=O)c3ccnc(F)c3)ccc2n1CC1CCC1 [Co. No. 136] | >22734 | 0.437 | < 5.00 | – | – | –
Cc1[nH][n+]([O-])cc1[S+]([O-])c1ccc2c(c1)nc(C(C)(C)C)n2CC1CCOCC1 (stereo not drawn) [Co. No. 137] | – | 1.12 | 6.11 | – | – | –
CCCCN(C)c1cc(S(=O)(=O)c2ccc3c(c2)nc(C(C)(C)C)n3CC2CCOCC2)ccn1 [Co. No. 138] | 473 | 1.74 | 6.08 | – | – | –
CC(C)(C)c1nc2cc(S(=O)(=O)c3ccnc(CCCCN)c3)ccc2n1CC1CCOCC1 [Co. No. 139] | >759 | 13.2 | < 5.00 | – | – | –
CC(=O)NCCCCc1cc(S(=O)(=O)c2ccc3c(c2)nc(C(C)(C)C)n3CC2CCOCC2)ccn1 [Co. No. 141] | >1792 | 5.62 | < 5.00 | – | – | –
C=Cc1cc(S(=O)(=O)c2ccc3c(c2)nc(C(C)(C)C)n3CC2CCOCC2)ccn1 [Co. No. 142] | 1413 | 0.955 | 5.87 | – | – | –
CC(=O)N1CCC(Cn2c(C(C)(C)C)nc3cc(S(=O)(=O)c4cc[n+]([O-])cc4)ccc32)CC1 [Co. No. 143] | – | 17 | < 5.00 | – | – | –
CC(C)(C)c1nc2cc(S(=O)(=O)c3ccnc(F)c3)ccc2n1CC1CCOC(=O)CC1 (stereo not drawn) [Co. No. 145] | >3090 | 3.24 | < 5.00 | – | – | –
CCCC(C)Cn1c(C(C)(C)C)nc2cc(S(=O)(=O)c3ccnc(F)c3)ccc21 (stereo not drawn) [Co. No. 148] | >38905 | 0.257 | < 5.00 | – | – | –
CC(C)(C)c1nc2cc(S(=O)(=O)c3ccnc(F)c3)ccc2n1C[C@H]1CC[C@@](C)(O)CC1 [Co. No. 153] | >11749 | 0.851 | < 5.00 | – | – | –
COCCCc1cc(S(=O)(=O)c2ccc3c(c2)nc(C(C)(C)C)n3CC2CCOCC2)cc[n+]1[O-] [Co. No. 155] | – | – | – | 8.60 | – | < 5.00
COc1ccc(CNCCc2cc(S(=O)(=O)c3ccc4c(c3)nc(C(C)(C)C)n4CC3CCOCC3)ccn2)cc1 [Co. No. 157] | >2884 | 3.47 | < 5.00 | – | – | –
